Several values for one entry are separate records, joined by “and”; a condition that tells them apart may be missing. Equal values may be shown once.
Legend:
SK-HEP-1 cells [1] = test: Protection of endothelial cells from H2O2-induced cell death (MTS assay); type: cell-based, human; parameters: key to Cell viability (MTS assay): cell viability as % survival; conditions: for Cell viability (MTS assay): SK-HEP-1, n = 6 replicates
Procedure: The effect of increasing concentrations of NACCbl and GSCbl to protect endothelial cells from the effect of H2O2 was assessed. […] Cell viability was determined by MTS® assay. […] FIG. 3 illustrates that NACCbl and GSCbl protect endothelial cells from the effect of H2O2. […] Cell viability was determined by MTS® assay. […] There was no difference between the protection afforded by NACCbl and that by GSCbl. Both required 100 μM to achieve >80% survival.

SK-HEP-1 cells [2] = test: Effect of high concentrations of NACCbl and GSCbl on SK-HEP-1 cells (MTS assay, 24 hours); type: cell-based, human; conditions: for Cell viability by MTS assay (FIG. 13): SK-HEP-1, 3 replicates
[3] = Decomposition in PBS at 37° C. monitored by UV/Vis spectrophotometry; type: physicochemical
Procedure: The decomposition of GSCbl, NACCbl, and HcyCbl in PBS at 37° C. was monitored by UV/Vis spectrophotometry.

Hsp32 = Hsp32 gene expression (RT-PCR, densitometry); type: cell-based, human; conditions: SK-HEP-1; Sn (IX) protoporphyrin 25 μM; Quercitin 15 μM
Procedure: Cells were plated into 6-, 12-, or 24-well cell culture clusters, at 2×10^3, 2×10^5, or 1×10^5 cells per well and incubated until 90% confluent. Treatments were applied as above.
Following incubation, cells were subjected to mRNA extraction followed by cDNA synthesis for each sample under test. Polymerase chain reaction cDNA templates were prepared for simplex PCR protocol. PCR products were then visualized using a UV Transilluminator and images captured using a Kodak ID gel imaging system. Densitometry and statistical analysis was then performed on each gene expression band image using PSP® v 10.0 running under Windows XP®.
mRNA extraction was performed using the Quickprep micro mRNA Purification Kit. Following incubation of cells post-treatment, the media was removed from the cells, adherent cells were re-suspended in 0.4 ml extraction buffer and 0.8 ml elution buffer at 65° C. was added.
A reaction mixture was prepared in individual microcentrifuge tubes containing 2 cDNA synthesis beads, 32 μl of the mRNA solution and 1 μl of pd(N)6. This mixture was incubated at 37° C. in a water bath for 60 minutes. After incubation, 27 μl of RNase-free DEPC treated water was added to each tube to make a total volume 60 μl. cDNA samples were prepared in duplicate. Sample 1 was used immediately in RT-PCR protocol. Sample 2 was prepared for qPCR protocol by the addition of 150 μl of 95% ice-cold ethanol and stored at −20° C.
Microcentrifuge tubes from puReTaq™Ready-To-Go™ PCR Beads containing one PCR bead were labeled for each sample required. Added to the PCR bead were 17 μl of RNase-free DEPC treated water, 1 μl sense primer, 1 μl anti-sense primer and 5 μl of the cDNA solution. RT-PCR conditions were as follows: Hsp70 and β-actin, pre-treatment step, 94° C. for 1 minute, followed by denaturing at 92° C. for 1 minute, annealing at 60° C. for 1 minute and extension at 72° C. for 1 minute. Total cycles, 30, post-treatment was then carried out at 72° C. for 10 minutes. For Hsp32, pre-treatment step, 95° C. for 2 minutes, followed by denaturing at 94° C. for 30 seconds, annealing at 58° C. for 1 minute and extension at 72° C. for 1 minute. Total cycles 45, post treatment was then carried out at 72° C. for 10 minutes. Following RT-PCR, samples were stored at −20° C.
Gels were visualised on a UV Transilluminator. Photographs were stored using a Kodak Digital camera system fitted with a UV filter set connected to a PC. Images were then transferred to the Kodak ID gel imaging system. Densitometry was performed on each gene expression band using PSP™ v10 running under Windows XP®.
Experiments were conducted using Hsp32 and Hsp 70 gene expression as the basis for study. […] The densitometric data are presented as means ±SEM of n=3 separate experiments. *p<0.05 or **p<0.01, treatment vs. control.

SK-HEP-1 cells [4] = test: Protection of endothelial cells from homocysteine-induced cell death (MTS assay); type: cell-based, human; conditions: for Normalized Data Log 2, Mean / Normalized Data Log 10, Mean: NACCbl 30 μM, NAC 75 μM, n = 6
[5] = 2 hours, then 25 μM H2O2 24 hours

Which “Difference between protection by NACCbl and by GSCbl” value (SK-HEP-1 cells [1]; 25 μM H2O2 24 hours) does the source give for CC(=O)NC(C[S-])C(=O)O.CC1=C2N=C(C=C3N=C(C(C)=C4[N-]C(C(CC(N)=O)C4(C)CCC(=O)NCC(C)OP(=O)([O-])OC4C(CO)OC(n5cnc6cc(C)c(C)cc65)C4O)C4(C)N=C1C(CCC(N)=O)C4(C)CC(N)=O)C(CCC(N)=O)C3(C)C)C(CCC(N)=O)C2(C)CC(N)=O.[Co+3] [NACCbl, N-acetyl-L-cysteinylcobalamin] here?
The value was “no difference”.

And the “Concentration required to achieve >80% survival” value (SK-HEP-1 cells [1]; [5])?
The value was 100 µM.

What about the “Preincubation concentration that protected cells from H2O2-induced cell death” value (SK-HEP-1 cells [1]; [5]) of the same compound?
The value was at least 2.0 µM.

What about the “Cell viability (MTS assay)” value (SK-HEP-1 cells [1]; compound 30 μM two hours, then H2O2 200 μM a further two hours) of the same compound?
Its value is 5.2108 and 7.153 and 1.99 and 0.6632.

What about the “Cell viability (MTS assay)” value (SK-HEP-1 cells [1]; compound concentration 6.25, 2 hours, then 25 μM H2O2 24 hours) of the same compound?
The value was 42.8195 and 42.09 and 39.39 and 30.9 and 28 and 38.4058.

What about the “Cell viability (MTS assay)” value (SK-HEP-1 cells [1]; compound concentration 12.5, 2 hours, then 25 μM H2O2 24 hours) of the same compound?
The value was 45.26 and 41.7 and 44.99 and 45.5863 and 42.23 and 47.36.

What about the “Cell viability (MTS assay)” value (SK-HEP-1 cells [1]; compound concentration 25, 2 hours, then 25 μM H2O2 24 hours) of the same compound?
The value was 46.9 and 46.77 and 45.26 and 42.69 and 45.72 and 48.16.

And the “Cell viability (MTS assay)” value (SK-HEP-1 cells [1]; compound concentration 100, 2 hours, then 25 μM H2O2 24 hours)?
Its value is 61.5942 and 56.59 and 70.22 and 74.37 and 64.23 and 61.79.

And the “Cell viability (MTS assay)” value (SK-HEP-1 cells [1]; compound concentration 200, 2 hours, then 25 μM H2O2 24 hours)?
The value was 100.7246 and 99.7365 and 101.8445 and 107.3123 and 92.69 and 97.56.

What about the Survival (SK-HEP-1 cells [2]; SK-HEP-1, 10 mM, 24 hours) of the same compound?
The Survival was “over 60%”.

What about the “Cell viability by MTS assay (FIG. 13)” value (SK-HEP-1 cells [2]; compound conc. 0.61, 24 hours) of the same compound?
Its value is 2.572 and 2.498 and 2.473.

And the “Cell viability by MTS assay (FIG. 13)” value (SK-HEP-1 cells [2]; compound conc. 1.22, 24 hours)?
Its value is 2.546 and 2.524 and 2.538.

What about the “Cell viability by MTS assay (FIG. 13)” value (SK-HEP-1 cells [2]; compound conc. 2.441, 24 hours) of the same compound?
Its value is 2.592 and 2.536 and 2.499.

What about the “Cell viability by MTS assay (FIG. 13)” value (SK-HEP-1 cells [2]; compound conc. 4.882, 24 hours) of the same compound?
The value was 2.532 and 2.463 and 2.457.

What about the “Cell viability by MTS assay (FIG. 13)” value (SK-HEP-1 cells [2]; compound conc. 9.765, 24 hours) of the same compound?
Its value is 2.505 and 2.474 and 2.514.

And the “Cell viability by MTS assay (FIG. 13)” value (SK-HEP-1 cells [2]; compound conc. 19.531, 24 hours)?
The value was 2.485 and 2.466 and 2.502.

What about the “Cell viability by MTS assay (FIG. 13)” value (SK-HEP-1 cells [2]; compound conc. 39.062, 24 hours) of the same compound?
Its value is 2.503 and 2.474 and 2.453.

What about the “Cell viability by MTS assay (FIG. 13)” value (SK-HEP-1 cells [2]; compound conc. 78.125, 24 hours) of the same compound?
Its value is 2.521 and 2.488 and 2.475.

And the “Cell viability by MTS assay (FIG. 13)” value (SK-HEP-1 cells [2]; compound conc. 156.25, 24 hours)?
The value was 2.484 and 2.42 and 2.492.

And the “Cell viability by MTS assay (FIG. 13)” value (SK-HEP-1 cells [2]; compound conc. 312.5, 24 hours)?
The value was 2.409 and 2.301 and 2.437.

And the “Cell viability by MTS assay (FIG. 13)” value (SK-HEP-1 cells [2]; compound conc. 625, 24 hours)?
The value was 2.358 and 2.242 and 2.347.

And the “Cell viability by MTS assay (FIG. 13)” value (SK-HEP-1 cells [2]; compound conc. 1250, 24 hours)?
Its value is 2.2 and 2.055 and 2.3.

What about the “Cell viability by MTS assay (FIG. 13)” value (SK-HEP-1 cells [2]; compound conc. 2500, 24 hours) of the same compound?
Its value is 1.989 and 1.891 and 2.085.

And the “Cell viability by MTS assay (FIG. 13)” value (SK-HEP-1 cells [2]; compound conc. 5000, 24 hours)?
The value was 2.081 and 2.003 and 2.004.

What about the “Cell viability by MTS assay (FIG. 13)” value (SK-HEP-1 cells [2]; compound conc. 10000, 24 hours) of the same compound?
The value was 1.908 and 1.82 and 1.732.

What about the t1/2 [3] of the same compound?
Its t1/2 is “No decomposition within 20 hours”.

What about the Hsp32 gene expression (Hsp32) of the same compound?
The Hsp32 gene expression was “induced”.

And the “Pre-incubation concentration that protected cells from homocysteine-induced cell death” value (SK-HEP-1 cells [4]; 2 hours, then 30 μM homocysteine 24 hours)?
Its value is at least 2.0 µM.

And the “Normalized Data Log 2, Mean” value (SK-HEP-1 cells [4]; Conc. Hcy 0.000)?
The value was 94.824.

And the “Normalized Data Log 10, Mean” value (SK-HEP-1 cells [4]; Conc. Hcy 0.000)?
Its value is 100.000.

What about the “Normalized Data Log 2, Mean” value (SK-HEP-1 cells [4]; Conc. Hcy 1.780) of the same compound?
Its value is 91.341.

And the “Normalized Data Log 10, Mean” value (SK-HEP-1 cells [4]; Conc. Hcy 1.780)?
Its value is 96.489.

What about the “Normalized Data Log 2, Mean” value (SK-HEP-1 cells [4]; Conc. Hcy 3.125) of the same compound?
The value was 80.699.

And the “Normalized Data Log 10, Mean” value (SK-HEP-1 cells [4]; Conc. Hcy 3.125)?
The value was 85.763.

What about the “Normalized Data Log 2, Mean” value (SK-HEP-1 cells [4]; Conc. Hcy 6.250) of the same compound?
The value was 75.524.

And the “Normalized Data Log 10, Mean” value (SK-HEP-1 cells [4]; Conc. Hcy 6.250)?
Its value is 80.546.

And the “Normalized Data Log 2, Mean” value (SK-HEP-1 cells [4]; Conc. Hcy 12.500)?
Its value is 70.387.

And the “Normalized Data Log 10, Mean” value (SK-HEP-1 cells [4]; Conc. Hcy 12.500)?
Its value is 75.368.

And the “Normalized Data Log 2, Mean” value (SK-HEP-1 cells [4]; Conc. Hcy 25.000)?
The value was 62.926.

What about the “Normalized Data Log 10, Mean” value (SK-HEP-1 cells [4]; Conc. Hcy 25.000) of the same compound?
Its value is 67.848.

And the “Normalized Data Log 2, Mean” value (SK-HEP-1 cells [4]; Conc. Hcy 50.000)?
The value was 56.302.

What about the “Normalized Data Log 10, Mean” value (SK-HEP-1 cells [4]; Conc. Hcy 50.000) of the same compound?
Its value is 61.171.

And the “Normalized Data Log 2, Mean” value (SK-HEP-1 cells [4]; Conc. Hcy 100.000)?
The value was 52.298.
